Assay results: publication PMC13702766, “Pharmacokinetic-Modifying Linker Design Modulates Performance of Multivalent PSMA/GRPR-Cell-Targeting ^177Lu Radiopharmaceuticals” (Cancers, 2026)

Target: T1, PSMA (Homo sapiens, UniProt Q04609)
T1 construct: LNCaP whole cells were prepared in suspension; host or cells: LNCaP human prostate carcinoma cells
Test: Whole-cell competitive binding assay in PSMA[+] LNCaP cells vs [177Lu]Lu-PSMA-617
Method: LNCaP whole cells were prepared in suspension (7.50 × 10^5 cells/mL) in binding media (DMEM + 0.2% BSA + 25 mM HEPES). […] Samples were incubated at room temperature for 60 min, centrifuged, and the supernatant was removed. Cell pellets were washed twice with ice-cold PBS and subsequently counted using an automated gamma counter. […] IC50 values were determined by nonlinear regression in GraphPad Prism, with all experiments performed in triplicate.

T1 sequence (Q04609 whole entry): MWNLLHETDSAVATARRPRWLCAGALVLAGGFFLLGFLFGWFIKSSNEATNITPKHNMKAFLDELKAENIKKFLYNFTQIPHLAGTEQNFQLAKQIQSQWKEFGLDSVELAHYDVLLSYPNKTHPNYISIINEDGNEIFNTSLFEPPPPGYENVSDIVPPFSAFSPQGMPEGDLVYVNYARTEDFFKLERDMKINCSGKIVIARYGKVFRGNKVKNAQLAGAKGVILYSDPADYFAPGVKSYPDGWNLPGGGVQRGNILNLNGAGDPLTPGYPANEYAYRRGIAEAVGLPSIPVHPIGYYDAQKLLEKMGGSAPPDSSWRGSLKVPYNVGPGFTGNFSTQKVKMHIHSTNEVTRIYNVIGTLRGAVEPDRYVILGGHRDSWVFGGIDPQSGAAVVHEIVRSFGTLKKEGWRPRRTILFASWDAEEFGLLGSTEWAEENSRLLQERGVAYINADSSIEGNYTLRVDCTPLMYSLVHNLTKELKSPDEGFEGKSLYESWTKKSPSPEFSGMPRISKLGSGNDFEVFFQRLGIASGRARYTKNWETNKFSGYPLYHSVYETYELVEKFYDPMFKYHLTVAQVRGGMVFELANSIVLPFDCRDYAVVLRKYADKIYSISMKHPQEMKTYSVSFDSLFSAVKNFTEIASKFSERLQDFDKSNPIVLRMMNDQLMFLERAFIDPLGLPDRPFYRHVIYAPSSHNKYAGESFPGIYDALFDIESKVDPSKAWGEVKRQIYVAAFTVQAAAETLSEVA

IC50: 2.7 ± 0.1 nM
SMILES: O=C(O)CC[C@H](NC(=O)N[C@@H](CCCCNC(=O)[C@H](Cc1ccc2ccccc2c1)NC(=O)[C@H]1CC[C@H](CNC(=O)CN2CCN(CC(=O)O)CCN(CC(=O)O)CCN(CC(=O)O)CC2)CC1)C(=O)O)C(=O)O [PSMA-617]
